In the test the test system is HepG2 cells. In words: Determination of reactive oxygen species (ROS) in HepG2 indicator cells (ROS-Glo system). Format: cell-based. As to conditions: two hours or four hours of incubation, FIG. 4 and 5. How it is done: The potential of Boswellia extract BSR037: LN00125 (Example 12) and Boswellia extract BSR037: LN00126 (Example 15) of inducing reactive oxygen species (ROS) was tested. The effects were compared with ROS generation upon exposure to positive control Menadione as well as two solvent ethanol. To this end, HepG2 cells were incubated in presence of different concentrations of the respective Boswellia extract for two hours. ROS levels were determined by using the ROS-Glo system (Promega). HepG2 cells were seeded in […] flat-bottom black microtiter plates at a density of 10000 cells per well, 100 μl per well, and allowed to attach to the plate for 24 hours. Test item dilutions were prepared in separate plates. The maximum concentration was a 1:100 dilution in media (final solvent concentration: 1% ethanol) followed by a 1:3 serial dilution in media containing 1% ethanol. […] Cells exposed to media containing 1% ethanol served as untreated control. After overnight adherence, media was completely removed from cells by vacuum aspiration and 80 μl of compound dilution, positive and negative controls were added to the cells. Test items were tested in two replicates per concentration (A and B). In independent experiments, ROS levels were measured after two hours of incubation (see FIG. 4A-D) or after four hours of incubation (see FIG. 5A-D), respectively).

As to `CC1=CC(=O)c2ccccc2C1=O` [Menadione], the ROS induction result was “ROS induction was detected”.

(Values after patent US11759492B2, “Extract from a plant of the genus Boswellia and related products and uses” (Alpinia Laudanum Institute of Phytopharmaceutical Sciences …, priority 2014, dated 2023).)
